Test results as given in patent publication US20250346943A1, “DEGRADER COMPOUNDS OF QSOX1 mRNA” (UNIVERSITY OF FLORIDA RESEARCH FOUNDATION, INCORPORATED, priority 2022, published 2025).

Tests used:
human transcriptome = experiment: Chem-CLIP-Map-Seq transcriptome-wide target profiling in live MDA-MB-231 cells; assay type: cell-based; details: 20 μM, 16 h; for number of transcripts enriched (Chem-CLIP-seq): before excluding control probe overlap
Method: Additional studies were performed in live MDA-MB-231 cells to profile the cellular targets as well as the small molecule binding site within them, via Chem-CLIP-Map-Seq,^21 which had not previously been applied transcriptome-wide. After treatment (20 μM; 16 h) and cross-linking, total RNA was harvested and fragmented prior to pull-down (FIG. 2A). Random fragmentation was completed first to: 1) reduce sequence bias in library preparation, 2) reduce background signal in the RNA-seq analysis; and 3) allow for only the regions bound by the small molecules to be pulled down rather than the entire transcript, identifying both the target and the binding site within it. In parallel, a control diazirine probe that lacks an RNA-binding functionality (FIG. 2B) was used to identify targets that non-specifically react with the cross-linking moiety, where cross-linking is not driven by the RNA-binding elements.
Genrich uses a null model with a log-normal distribution to calculate p values by comparing sequencing runs of the same RNA sample before and after pull-down.
Chemical-Cross-linking and Isolation by Pull-down (Chem-CLIP) in Live Cells. MDA-MB-231 cells were seeded in 60 mm dishes and allowed to reach ˜80% confluency. The cells were then treated with 20 μM of compound in growth medium and incubated for 16 h. Cells were washed with 1×DPBS and irradiated with UV light for 10 min. Total RNA was harvested using a Zymo Quick-RNA Miniprep Kit per the manufacturer's protocol with DNase treatment. Total RNA was chemically fragmented by using an NEBNext Magnesium RNA Fragmentation Module (E6150S) per manufacturer's protocol to achieve final lengths between 100-150 nucleotides Pull-down of cross-linked RNAs was performed by adding 10 μg of total RNA to 100 μL of azide-disulfide agarose beads (Click Chemistry Tools, 1238-2) pre-washed with 25 mM HEPES, pH 7.0. The click reaction and pull-down were completed as described in “In Vitro Chemical-Crosslinking and Isolation by Pull-down (Chem-CLIP) with Fluorescently Labeled RNA”. The pulled down RNA was purified by RNA CleanXP beads (Beckman, A66514) per manufacturer's protocol.
RNA-seq Library Preparation and Data Analysis. The quality of the pulled down RNA was analyzed by using an Agilent 2100 Bioanalyzer RNA nanochip as well as to confirm fragment lengths. RNA concentration was quantified by Qubit 2.0 Fluorometer (Invitrogen). The input RNA (200 ng) was depleted of ribosomal RNA with NEBNext rRNA Depletion Module (E6310) according to manufacturer's recommendations. Library preparation was performed with NEBNext Ultra II Directional RNA kit (E7760) per manufacturer's protocols. Briefly, the rRNA-depleted samples were reverse transcribed with random hexamer primers to generate first strand cDNA, followed by second strand synthesis with dUTP instead of dTTP. The cDNA was end repaired and adenylated at their 3′ ends, followed by adaptor ligation. The strand information of the RNA was preserved by using USER enzyme (Uracil-specific excision reagent) to degrade the second strand. The cDNA was then PCR amplified with barcoded Illumina-compatible primers to generate the final libraries. These libraries were loaded into a NextSeq 500 v2.5 flow cell and sequenced with 2×40 bp paired-end chemistry. All fastq files were aligned to the human genome by STAR.^9 The output bam files were processed by Genrich (v0.6.1, available at https://github.com/jsh58/Genrich) for peak calling to identify regions of enrichment (p<0.001 and False Discovery Rate=1%). Fold enrichment was calculated by Deeptool^10 and visualized by IGV browser.^11 A minimum read count of 5 and a minimum fold enrichment of 1.5 were applied filter to filter out low-confidence peaks.

MDA-MB-231 cells [1] = experiment: Invasion assay; assay type: cell-based, human; details: 48 h
Method: Invasion Assay. MDA-MB-231 cells were seeded in […] and treated with compound or transfected by ASO for 48 h as described in Cell Culture. After treatment for 48 h, the medium was replaced with fresh medium that contains same concentration of compound but lacking FBS for 8 h (serum starvation). ThinCert (GBO) 24-well inserts with 8 μm pores were coated with 100 μL of 0.5 mg/mL Matrigel (Fisher Scientific: CB40234) per well, and then cells were added into the insert (50,000 cells per well). Fresh growth medium with FBS was added to a 24-well plate (600 μL each well), and the inserts containing cells were placed on the top, allowing medium to cover the bottom of the insert. After 16 h, all medium was removed, and cells were washed by 1×DPBS twice. Cells were then fixed with 3% (w/v) paraformaldehyde (PFA) in 1×DPBS at room temperature for 30 min, followed by staining with Crystal Violet (10 mg/mL; 4:1H2O:MeOH) at room temperature for 20 min. A cotton swab was used to gently remove non-invasive cells on sitting on top of the Matrigel. The inserts were then imaged under a regular optical microscope (3 views per well), and the number of invasive cells were counted manually.

[2] = tested on: WT model of the QSOX1-a hairpin structure; experiment: Optical melting, WT model RNA; assay type: binding, human
Method: (§1) Optical Melting Experiments. The thermal stability of WT and mutant model RNAs in the presence and absence of F1-Amide was measured by optical melting. The RNA ([…]) was prepared in 1× Melting Buffer (8 mM Na2HPO4, pH 7, 10 mM NaCl, and 1 mM EDTA) and heated to 95° C. followed by cooling on ice. F1-Amide was added to the final concentration of 2 mM; an equal volume of DMSO was added to the vehicle sample. The absorbance of the solution at 260 nm was measured by a Beckman Coulter DU800 spectrophotometer as a function of temperature, from 12° C. to 85° C. at a rate of 1° C./min. The background absorbance of buffer with DMSO or compound was subtracted before fitting the curve with MeltWin (v3.5)^7 to determine the melting temperature (Tm) and the Gibbs free energy (ΔG37° C.).

QSOX1-a protein = QSOX1-a protein abundance by Western blotting in MDA-MB-231 cells; assay type: cell-based, human; details: 20 μM
Method: (§2) Measuring Protein Abundance by Western Blotting. MDA-MB-231 cells were seeded in 6-well plates at ˜50% confluency and treated with vehicle (DMSO) or compound as described above but without EU treatment. After 16 h, the compound-containing growth medium was removed and replaced with fresh medium containing compound (re-dosing). After an additional 32 h incubation, total protein was harvested (48 h total treatment time). The cells were then washed twice with cold 1×DPBS, and total protein was harvested by using Mammalian Protein Extraction Reagent (M-PER, Thermo Scientific) per the manufacturer's protocol. Protein concentration was quantified by using BCA Protein Assay Kit (Pierce), and the proteins were separated by using 10% SDS-polyacrylamide gel (20 μg protein per lane). After gel electrophoresis in 1× Running Buffer (50 mM MOPS, 50 mM Tris-base, pH 7.5, 1 mM EDTA, and 0.1% (w/v) SDS) at 120 V for 1 h, the proteins were transferred to a PVDF membrane (0.45 μm, Cytiva) at 300 mA for 1 h in 1× Transfer Buffer (25 mM Bicine, 25 mM Tris-base, pH 7.5, 1:4 MeOH:H2O). The membrane was blocked with 5% (w/v) non-fat dry milk in TBST (1×TBS containing 0.1% (v/v) Tween-20) for 1 h at room temperature. The primary antibody for QSOX1 protein (Cat #10092-932, Proteintech) or SQSTM1 protein (Cat #ab 109012, Abcam) was incubated with 1:1000 dilutions at 4° C. for 16 h. The membrane was then washed by TBST four times (5 min each) and then incubated with the secondary antibody (Cat #7074S, Cell Signaling) with 1:5000 dilution at room temperature for 2 h. The membrane was washed with TBST four times (5 min each) and imaged by using a SuperSignal West Pico Chemiluminescent Substrate (Pierce) per manufacturer's protocol. The blot was stripped by washing the membrane in 1× Stripping Buffer (200 mM glycine, pH 2.2, 4 mM SDS, 1% (v/v) Tween 20) at room temperature for 30 min, followed by blocking again as described above. […] Expression levels of proteins were quantified based on band intensity by using ImageJ. […]

[3] = tested on: wild type (WT) QSOX1 5′ UTR RNA hairpin; experiment: In vitro Chem-CLIP and competitive Chem-CLIP with Cy5-labeled WT RNA; assay type: binding, human; details: constant concentration of F1, increasing competitor
Method: In Vitro Chemical-Crosslinking and Isolation by Pull-down (Chem-CLIP) with Fluorescently Labeled RNA. Cy5-labeled RNA (100 μL, 2 μM) was folded by heating at 95° C. for 2 min in 1× Folding Buffer and cooled on ice. The RNA was then mixed with F1 at the indicated concentrations. The sample was irradiated with UV light (365 nm) for 15 min and then added to 100 μL of azide-disulfide agarose beads (Click Chemistry Tools, 1238-2) pre-washed with 200 μL of 25 mM HEPES, pH 7.0. A click reaction solution was prepared by mixing 30 μL of 250 mM sodium ascorbate, 30 μL of 10 mM CuSO4, and 30 μL of 50 mM THPTA, which was added to the sample. The sample was incubated while rotating at 37° C. for 2 h, briefly centrifuged, and then the supernatant was decanted. The beads were washed six times with 1× Washing Buffer (10 mM Tris-HCl, pH 7, 4 M NaCl, 1 mM EDTA, and 0.05% (v/v) Tween-20) following by incubation with 1× Releasing Buffer (50 mM TCEP and 100 mM K2CO3) at 37° C. for 30 min. An equivalent of iodoacetamide (200 mM) was added to the sample, which was incubated at 37° C. for an additional 30 min. The sample was briefly centrifuged and supernatant containing RNA was carefully transferred to a clean tube. Cy-5 fluorescence in the supernatant was measured with a Molecular Devices SpectraMax M5 plate reader with an excitation wavelength of 640 nm and an emission wavelength of 680 nm. For competitive Chem-CLIP, F1-RIBOTAC was added to the folded the RNA and incubated at room temperature for 15 min prior to the addition of F1. Pull-down was then completed as described above.

[4] = biological target: QSOX1 5′UTR hairpin (model of the QSOX1-a binding site); experiment: In vitro binding by fluorescence polarization, Cy5-labeled WT RNA; set-up: species or system human
Method: In Vitro Binding by Measuring Changes in Fluorescence Polarization. Cy5-labeled RNA was folded by heating at 95° C. for 2 min in 1× Folding Buffer and cooled on ice. Serial dilutions of F1 (200 to 0.4 μM, 1:1 dilutions) were prepared in 1× Folding Buffer with 4% (w/v) bovine serum albumin (BSA) with constant DMSO concentration (2% v/v). The compound solutions (10 μL) were added to a well of non-binding 384-well plate (Corning). An equal volume of folded RNA was adding to each well with a final concentration of 50 nM. The samples were incubated at room temperature for 30 min, and then fluorescence polarization was measured with a Molecular Devices SpectraMax M5 plate reader with an excitation wavelength of 640 nm and an emission wavelength of 680 nm.

SQSTM1 protein = SQSTM1 protein abundance by Western blotting in MDA-MB-231 cells; assay type: cell-based, human; details: F1-Amide 20 μM, F1-RIBOTAC 10 μM, 48 h
Method: as §2, with “temperature.” for “temperature. The primary antibody for QSOX1 protein (Cat #10092-932, Proteintech) or SQSTM1 protein (Cat #ab 109012, Abcam) was incubated with 1:1000 dilutions at 4° C. for 16 h. The membrane was then washed by TBST four times (5 min each) and then incubated with the secondary antibody (Cat #7074S, Cell Signaling) with 1:5000 dilution at room temperature for 2 h. The membrane was washed with TBST four times (5 min each) and imaged by using a SuperSignal West Pico Chemiluminescent Substrate (Pierce) per manufacturer's protocol. The blot was stripped by washing the membrane in 1× Stripping Buffer (200 mM glycine, pH 2.2, 4 mM SDS, 1% (v/v) Tween 20) at room temperature for 30 min, followed by blocking again as described above.”

[5] = tested on: mutant RNA (U-bulge mutated to U/A base pair); experiment: Optical melting, mutant model RNA; assay type: binding
Method: as §1

MDA-MB-231 cells [6] = experiment: Proliferation assay; assay type: cell-based, human; details: 48 h treatment
Method: Proliferation Assay. MDA-MB-231 cells were seeded in 96-well plates (Corning) at ˜40% confluency and treated with compound or transfected with ASO as described in Cell Culture. Compound was replenished every 16 h by replacing all the growth medium with freshly prepared medium containing same concentration of compounds. After 48 h total treatment period, proliferation was measured by using CellTiter 96 AQueous One Solution Cell Proliferation Assay (Cat #G3582, Promega) per manufacturer's protocol.

[7] = upon addition of small molecule

Structure (SMILES)	number of enriched transcripts also enriched by the control probe (human transcriptome) [transcripts]	share of enriched transcripts also enriched by the control probe (human transcriptome) [%]	number of transcripts enriched (Chem-CLIP-seq) (human transcriptome) [transcripts]	unique transcripts identified for the small molecule (human transcriptome)	further results
C#CCCC1(CCC(=O)Nc2nc(-c3ccc(-n4cccn4)cc3)cs2)N=N1 [Compound F6]	55	43	127	–	–
C#CCCC1(CCC(=O)N2CCN(c3nncc4sccc34)CC2)N=N1 [Compound F2]	52	31	166	38	–
C#CCCC1(CCC(=O)N(CCNC(=O)c2ccc(C)c(F)c2)Cc2ccncc2)N=N1 [Compound F3]	53	32	163	–	–
CCCNC(=O)CCC(=O)N(C)[C@H]1CC[C@@H](c2ccc(Cl)c(Cl)c2)c2ccccc21 [Compound F1-Amide]	–	–	–	–	effect on invasion (MDA-MB-231 cells [1]): no significant effect; Tm of WT model RNA upon addition of compound ([2]; RNA alone 51.8): 53.7 °C; ΔG37° C. of WT model RNA upon addition of compound ([2]; RNA alone −2.7): -3.0 kcal/mol; decrease of DG°37 [2, 7]: 0.3 kcal/mol; increase of melting temperature (Tm) [2, 7]: 1.9 °C; reduction of QSOX1-a protein (QSOX1-a protein): ~15%; competition of F1 cross-linking to the QSOX1-a target site (competitive Chem-CLIP) [3]: dose-dependently competed off; Kd [4]: 26 ± 9 µM; effect on SQSTM1 protein levels (SQSTM1 protein): Neither; effect on Tm or ΔG37° C. of mutant RNA [5]: No significant effect; effect on proliferation of MDA-MB-231 cells (MDA-MB-231 cells [6]): dose-dependently reduced proliferation
C#CCCC1(CCC(=O)Nc2nnc(SCc3ccc(F)c4cccnc34)n2C)N=N1 [Compound F5]	57	62	92	3	number of transcripts enriched after eliminating transcripts also bound by the control diazirine (human transcriptome): 35
